Source: patent US7547439B1, “Tumor rejection antigens” (Ludwig Institute for Cancer Research, priority 1998, dated 2009)
Entries after “also recorded” stand apart in the source; their conditions may differ.

System: LB1751-EBV cells
Assay: Chromium release assay: lysis by CTL 447A/5 of peptide-sensitised LB1751-EBV cells
Format: cell-based, human
Details: for Lysis by CTL 447A/5 of peptide-pulsed LB1751-EBV cells pre-treated with anti-HLA-A2 mAb MA2.1: MA2.1 (1/5 dilution of hybridoma supernatant) during 51Cr-labeling, E/T 20, 4 h; for Lysis by CTL 447A/5 of LB1751-EBV cells incubated with peptide: peptide concentration as high as 10 μM
Procedure: FIG. 4. […] (A) LB1751-EBV cells pulsed with peptides derived from MAGE-A10. Chiromium-labelled autologous EBV-transformed lymphoblastoid cells LB1751-EBV were pulsed for 30 min with peptides as indicated at various concentrations before addition of CTL 447A/5 at an E/T ratio of 20. Chromium release was measured after 4 h. (B) Enhancement by mAb MA2.1 of lysis of LB1751-EBV cells pulsed with MAGE-A10 peptides. LB1751-EBV cells were pre-treated with or without anti-HLA-A2 antibody MA2.1. The pre-treatment was performed by adding mAb MA2.1 during ^51Cr-labeling. Peptide sensitisation and chromium release assay were carried out as in (A).
FIG. 5. […] LB1751-EBVcells were pre-treated with or without anti-HLA-A2 antibody MA2. 1. Ab treatment and peptide sensitisation of the cells and chromium release assay were carried out as in FIG. 4.
In the amino acid sequence corresponding to the nucleotides 547-825 there are two nonapeptides, […] (codons 183-191 in the ORF) (SEQ. ID. NO. 46) and […] (254-262) (SEQ. ID. NO. 42), which conform to the HLA-A2.1 peptide binding motif, i.e., a nona- or decapeptide with Leu or Met at position 2 and Leu, Val or Ile at its C-terminus (Rammensee, H. G., et al., 1995, Immunogenetics, 41:178-228). These two peptides and their overlapping decapeptides were synthesised on solid phase using F-moc for transient NH2-terminal protection and characterised by mass spectrometry. The peptides were >90% pure, as indicated by analytical HPLC, and used to sensitise autologous lymphoblastoid cell line LB1751-EBV in a chromium release assay as described in (Boon, T., et al., 1980, J. Exp. Med 152:1184-1193) but modified as follows. The target cells were ^51Cr-labeled for 1 h at 37° C. and then washed extensively. 1,000 target cells were then incubated in 96-well microplates in the presence of various concentrations of peptides for 30 min at 37° C. and CTLs were added at an E/T ratio of 20. Chromium release was measured after 4 h at 37° C.
Enhancement of peptide binding to the HLA-A2 molecule was achieved by incubation of target cells during ^51Cr-labeling with a ⅕ dilution of hybridoma culture supernatant of mAb MA2.1 (McMichael, A. J., et al., 1980, Hum. Immunol. 1:121-129; and Bodmer, H., et al., 1989, Nature 342:443-446).
This peptide and its overlapping decapeptide […] (codons 232-241) (SEQ. ID. NO. 45) were synthesised by the technique described above. LB1751-EVB cells incubated with either of the peptides, at a concentration of as high as 10 μM peptide, were not lysed by CTL 447A/5. […] Enhancement of peptide binding to the HLA-A2 molecule was achieved by incubation of target cells during ^51Cr-labeling with a ⅕ dilution of hybridoma culture supernatant of mAb MA2.1 (McMichael, A. J., et al., 1980, Hum. Immunol. 1: 121-129; and Bodmer, H., et al., 1989, Nature 342.443-446).

[1] = cells pulsed 30 min with peptide at various concentrations, E/T ratio 20, chromium release after 4 h, no mAb MA2.1

**Q.** Which “Lysis by CTL 447A/5 of peptide-pulsed LB1751-EBV cells pre-treated with anti-HLA-A2 mAb MA2.1” value (“Lysis … with anti-HLA-A2 mAb MA2.1” below) does the source give for “GLYDGREHS (listed as Homo sapiens) [nonapeptide encoded by MAGE-A8 (codons 232-240)]” here?
**A.** enhancement of lysis

**Q.** What about the “Sensitisation of LB1751-EBV cells to lysis by CTL 447A/5” value (“Sensitisation of LB1751-EBV cells” below) (peptide concentration 100 μM) of the same sequence?
**A.** did sensitise LB1751-EBV cells to lysis

**Q.** What about the “Lysis by CTL 447A/5 of LB1751-EBV cells incubated with peptide” value of the same sequence?
**A.** not lysed

**Q.** Which “Lysis … with anti-HLA-A2 mAb MA2.1” value does the source give for “CMLLVFGIDV (listed as Homo sapiens) [decapeptide from MAGE-A10 (182-191)]” here?
**A.** failed to confer recognition

**Q.** And the “Sensitisation of LB1751-EBV cells” value [1]?
**A.** failed to confer recognition

**Q.** For “MLLVFGIDV [nonapeptide from MAGE-A10 (codons 183-191)]”, which “Lysis … with anti-HLA-A2 mAb MA2.1” value is on record?
**A.** failed to confer recognition

**Q.** What about the “Sensitisation of LB1751-EBV cells” value [1] of the same sequence?
**A.** failed to confer recognition

**Q.** Which results are given for “GLYDGMEHLI (listed as Homo sapiens) [decapeptide encoded by MAGE-A10 (254-263)]”?
**A.** Lysis by CTL 447A/5 of peptide-pulsed LB1751-EBV cells pre-treated with anti-HLA-A2 mAb MA2.1: significantly increased sensitivity to lysis; Sensitisation of LB1751-EBV cells to lysis by CTL 447A/5 [1]: less efficiently

**Q.** Which “Lysis … with anti-HLA-A2 mAb MA2.1” value does the source give for “GLYDGMEHL (listed as Homo sapiens) [nonapeptide encoded by MAGE-A10 (codons 254-262), presented by HLA-A2]” here?
**A.** significantly increased sensitivity to lysis

**Q.** And the “Sensitisation of LB1751-EBV cells” value [1]?
**A.** could sensitise LB1751-EBV cells to lysis; also recorded: recognises

**Q.** Which results are given for “GLYDGREHSV (listed as Homo sapiens) [decapeptide encoded by MAGE-A8 (codons 232-241)]”?
**A.** Lysis by CTL 447A/5 of peptide-pulsed LB1751-EBV cells pre-treated with anti-HLA-A2 mAb MA2.1: not; Lysis by CTL 447A/5 of LB1751-EBV cells incubated with peptide: not lysed
